Where “and” joins values, the source holds several entries; their conditions need not be identical. Identical values can stand only once. Inconclusive results and toxic doses are left out. Rule for the calls: active = survival T/C of 150% or more; inactive = T/C below 125% in these data.
Tested on: BDF1 mice, B16 melanoma ip, median survival T/C
Test: NCI In Vivo Anticancer Drug Screen. Data for tumor model B16 Melanoma (intraperitoneal) in B6D2F1 (BDF1) mice
Conditions: endpoint: median survival time, higher = longer survival
Summary of the method: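 Compounds were tested in mice carrying transplantable tumors. Survival or tumor size was recorded, and each value is the treated-group measurement (T) divided by that of the vehicle-treated control group (C).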

[1] = dose: 6.25 mg/kg/injection, schedule: Q01DX009 (ip), vehicle: other
[2] = dose: 12.5 mg/kg/injection, schedule: Q01DX009 (ip), vehicle: other
[3] = dose: 25.0 mg/kg/injection, schedule: Q01DX009 (ip), vehicle: other
[4] = dose: 12.5 mg/kg/injection, schedule: Q01DX009 (ip), vehicle: saline with Tween-80
[5] = dose: 12.5 mg/kg/injection, schedule: Q01DX009 (ip), vehicle: saline
[6] = dose: 25.0 mg/kg/injection, schedule: Q01DX009 (ip), vehicle: saline
[7] = dose: 25.0 mg/kg/injection, schedule: Q01DX009 (ip), vehicle: Klucel (hydroxypropylcellulose) (HPC)
[8] = dose: 50.0 mg/kg/injection, schedule: Q01DX009 (ip), vehicle: Klucel (hydroxypropylcellulose) (HPC)
[9] = dose: 25.0 mg/kg/injection, schedule: Q01DX009 (ip), vehicle: saline with Tween-80
[10] = dose: 50.0 mg/kg/injection, schedule: Q01DX009 (ip), vehicle: saline with Tween-80
[11] = dose: 100.0 mg/kg/injection, schedule: Q04DX003 (ip), vehicle: Klucel (hydroxypropylcellulose) (HPC)
[12] = dose: 100.0 mg/kg/injection, schedule: Q01DX009 (ip), vehicle: Klucel (hydroxypropylcellulose) (HPC)
[13] = dose: 200.0 mg/kg/injection, schedule: Q01DX009 (ip), vehicle: Klucel (hydroxypropylcellulose) (HPC)
[14] = dose: 400.0 mg/kg/injection, schedule: Q01DX009 (ip), vehicle: Klucel (hydroxypropylcellulose) (HPC)

Measured: T/C

COc1ccc(CN(CCOC(=O)c2ccc(OC)cc2)CCN(CCOC(=O)c2ccc(OC)cc2)Cc2ccc(OC)cc2)cc1
inactive: dose: 3.12 mg/kg/injection, schedule: Q01DX009 (ip), vehicle: other 100 % of control | [1] 89 % of control | [2] 90 % of control | [3] 92 % of control

COc1cc(C[C@H]2c3cc(OC)c(OC)cc3CCN2C)c(Oc2cc3c(cc2OC)-c2c(OC)c(OC)cc4c2[C@H](C3)N(C)CC4)cc1OC
inactive: dose: 3.0 mg/kg/injection, schedule: Q01DX009 (ip), vehicle: saline with Tween-80 93 % of control | dose: 6.25 mg/kg/injection, schedule: Q01DX009 (ip), vehicle: saline with Tween-80 92 % of control and 95 % of control | [4] 88 % of control and 97 % of control and 107 % of control | dose: 75.0 mg/kg/injection, schedule: Q01DX009 (ip), vehicle: saline with Tween-80 87 % of control

Nc1ncnc2c1ncn2C1OC(CO)C(O)C1O (stereo not drawn)
inactive: dose: 18.7 mg/kg/injection, schedule: Q01DX009 (ip), vehicle: saline 96 % of control | dose: 32.0 mg/kg/injection, schedule: Q01DX009 (ip), vehicle: Klucel (hydroxypropylcellulose) (HPC) 99 % of control and 105 % of control | dose: 37.5 mg/kg/injection, schedule: Q01DX009 (ip), vehicle: saline 99 % of control | dose: 64.0 mg/kg/injection, schedule: Q01DX009 (ip), vehicle: Klucel (hydroxypropylcellulose) (HPC) 98 % of control and 101 % of control | dose: 75.0 mg/kg/injection, schedule: Q01DX009 (ip), vehicle: saline 98 % of control | dose: 128.0 mg/kg/injection, schedule: Q01DX009 (ip), vehicle: Klucel (hydroxypropylcellulose) (HPC) 99 % of control and 101 % of control | dose: 150.0 mg/kg/injection, schedule: Q01DX009 (ip), vehicle: saline 121 % of control | dose: 256.0 mg/kg/injection, schedule: Q01DX009 (ip), vehicle: Klucel (hydroxypropylcellulose) (HPC) 97 % of control and 98 % of control | dose: 512.0 mg/kg/injection, schedule: Q01DX009 (ip), vehicle: Klucel (hydroxypropylcellulose) (HPC) 93 % of control and 101 % of control | dose: 600.0 mg/kg/injection, schedule: Q01DX009 (ip), vehicle: saline 123 % of control

N#CCCCN1CCCCC1
inactive: dose: 6.25 mg/kg/injection, schedule: Q01DX009 (ip), vehicle: saline 100 % of control | [5] 100 % of control | [6] 111 % of control

c1ccc(-c2nc(N3CCOCC3)nc3ccccc23)cc1
inactive: dose: 100.0 mg/kg/injection, schedule: Q04DX003 (ip), vehicle: saline with Tween-80 104 % of control | dose: 200.0 mg/kg/injection, schedule: Q04DX003 (ip), vehicle: saline with Tween-80 88 % of control

O=C(O)C(CSC(c1ccccc1)(c1ccccc1)c1ccccc1)N=Cc1cccs1 (stereo not drawn)
inactive: [5] 117 % of control | [6] 122 % of control

CNCc1ccccc1C(O)c1ccc(Cl)cc1 (stereo not drawn)
inactive: dose: 6.25 mg/kg/injection, schedule: Q01DX009 (ip), vehicle: Klucel (hydroxypropylcellulose) (HPC) 102 % of control | dose: 12.5 mg/kg/injection, schedule: Q01DX009 (ip), vehicle: Klucel (hydroxypropylcellulose) (HPC) 100 % of control | [7] 97 % of control | [8] 102 % of control

CC1OC(O[C@H]2/C=C/C=C/C=C/C=C/C=C/C=C/C=C/[C@H](C)[C@@H](O)[C@@H](C)[C@H](C)OC(=O)C[C@H](O)C[C@H](O)CC[C@@H](O)[C@H](O)C[C@H](O)C[C@]3(O)C[C@H](O)[C@@H](C(=O)O)[C@H](C2)O3)C(O)C(N)C1O (stereo partly drawn)
inactive: dose: 1.0 mg/kg/injection, schedule: Q01DX009 (ip), vehicle: saline 102 % of control and 124 % of control | dose: 2.0 mg/kg/injection, schedule: Q01DX009 (ip), vehicle: saline 106 % of control and 113 % of control | dose: 4.0 mg/kg/injection, schedule: Q01DX009 (ip), vehicle: saline 97 % of control and 116 % of control | dose: 8.0 mg/kg/injection, schedule: Q01DX009 (ip), vehicle: saline 92 % of control and 102 % of control | dose: 16.0 mg/kg/injection, schedule: Q01DX009 (ip), vehicle: saline 88 % of control and 98 % of control

Cc1cc(C)nc(NC(N)=NCCc2ccccc2)n1
inactive: [4] 104 % of control | [9] 88 % of control | [10] 97 % of control

[Cl][Pt+2]([Cl])([Cl])[Cl].[NH-]C1CCCCC1.[NH-]C1CCCCC1
inactive: [1] 124 % of control | [2] 111 % of control | [3] 112 % of control | dose: 50.0 mg/kg/injection, schedule: Q01DX009 (ip), vehicle: other 103 % of control

O=C(CCN1CC1)OC1CCCC1
inactive: dose: 0.75 mg/kg/injection, schedule: Q01DX009 (ip), vehicle: Klucel (hydroxypropylcellulose) (HPC) 111 % of control | dose: 1.5 mg/kg/injection, schedule: Q01DX009 (ip), vehicle: Klucel (hydroxypropylcellulose) (HPC) 105 % of control | dose: 3.0 mg/kg/injection, schedule: Q01DX009 (ip), vehicle: Klucel (hydroxypropylcellulose) (HPC) 108 % of control

COc1ccc2c(=O)c(C)c(-c3ccccc3)oc2c1CN(C)C
inactive: dose: 0.19 mg/kg/injection, schedule: Q01DX009 (ip), vehicle: saline 95 % of control | dose: 0.39 mg/kg/injection, schedule: Q01DX009 (ip), vehicle: saline 103 % of control | dose: 0.78 mg/kg/injection, schedule: Q01DX009 (ip), vehicle: saline 100 % of control | dose: 1.56 mg/kg/injection, schedule: Q01DX009 (ip), vehicle: saline 96 % of control

Nc1n[n+](-c2ccccc2)no1
inactive: dose: 1.56 mg/kg/injection, schedule: Q01DX009 (ip), vehicle: water 102 % of control | dose: 3.12 mg/kg/injection, schedule: Q01DX009 (ip), vehicle: water 89 % of control | dose: 3.13 mg/kg/injection, schedule: Q01DX009 (ip), vehicle: water 96 % of control | dose: 6.25 mg/kg/injection, schedule: Q01DX009 (ip), vehicle: water 102 % of control and 105 % of control | dose: 12.5 mg/kg/injection, schedule: Q01DX009 (ip), vehicle: water 119 % of control

O=C/C(Br)=C\c1ccccc1
inactive: dose: 25.0 mg/kg/injection, schedule: Q04DX003 (ip), vehicle: Klucel (hydroxypropylcellulose) (HPC) 96 % of control | dose: 50.0 mg/kg/injection, schedule: Q04DX003 (ip), vehicle: Klucel (hydroxypropylcellulose) (HPC) 103 % of control | [11] 96 % of control

Cc1ccc2c(ccc3c[n+]4ccccc4c(C)c32)c1
inactive: dose: 1.25 mg/kg/injection, schedule: Q01DX009 (ip), vehicle: saline with Tween-80 95 % of control | dose: 2.5 mg/kg/injection, schedule: Q01DX009 (ip), vehicle: saline with Tween-80 95 % of control and 102 % of control | dose: 5.0 mg/kg/injection, schedule: Q01DX009 (ip), vehicle: saline with Tween-80 90 % of control and 102 % of control

COc1ccccc1OCC(O)COC(N)=O (stereo not drawn)
inactive: [7] 94 % of control | [8] 91 % of control | [12] 105 % of control | [13] 100 % of control | [14] 105 % of control

O=C1NC(=S)S/C1=C\c1ccc(Cl)c(Cl)c1
inactive: [12] 88 % of control | [11] 88 % of control | [13] 97 % of control | dose: 200.0 mg/kg/injection, schedule: Q04DX003 (ip), vehicle: Klucel (hydroxypropylcellulose) (HPC) 93 % of control | [14] 97 % of control | dose: 400.0 mg/kg/injection, schedule: Q04DX003 (ip), vehicle: Klucel (hydroxypropylcellulose) (HPC) 88 % of control

O=S(=O)(O)c1ccc2cccc(N=Nc3c(O)ccc4ccccc34)c2c1
inactive: [4] 105 % of control | [9] 102 % of control | [10] 91 % of control
